Source: patent US9067949B2, “Benzofuro[3,2-c] pyridines and related analogs as serotonin sub-type 6 (5-HT6) modulators for the treatment of obesity, metabolic syndrome, cognition and schizophrenia” (Albany Molecular Research, Inc., priority 2011, dated 2015)
Like-named read-outs stand apart in the source and are kept apart here.

Columns and labels:
[1] = biological target: T1, human 5-HT6 receptor (Homo sapiens (Human), UniProt P50406); assay: 5-HT6 radioligand binding assay (SPA format, [N-methyl-3H]-LSD); details: human 5-HT6 receptor membranes, 10 nM [N-methyl-3H]-LSD, Ki by Cheng-Prusoff, read-out: human 5HT6 Ki
T1 sequence (P50406 whole entry): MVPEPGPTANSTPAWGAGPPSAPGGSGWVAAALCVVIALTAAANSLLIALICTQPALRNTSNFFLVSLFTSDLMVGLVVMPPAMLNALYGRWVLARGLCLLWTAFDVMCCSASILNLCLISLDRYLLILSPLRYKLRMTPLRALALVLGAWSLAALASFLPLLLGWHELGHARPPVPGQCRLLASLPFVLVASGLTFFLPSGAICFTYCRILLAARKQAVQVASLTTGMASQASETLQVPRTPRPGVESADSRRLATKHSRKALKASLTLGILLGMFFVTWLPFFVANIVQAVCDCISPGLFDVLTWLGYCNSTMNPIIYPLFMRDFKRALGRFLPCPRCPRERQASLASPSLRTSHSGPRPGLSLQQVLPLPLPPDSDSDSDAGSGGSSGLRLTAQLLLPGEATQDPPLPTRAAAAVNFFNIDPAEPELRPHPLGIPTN
In short: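 Human 5-HT6 receptor membranes were incubated overnight at room temperature with 10 nM [N-methyl-3H]-LSD and competitor in 50 mM Tris-HCl pH 7.5, 5 mM MgCl2, 1 mM EDTA, 4% DMSO, read by SPA. Nonspecific binding was defined with 100 μM 5-HT. IC50 came from ten-point duplicate curves; Ki via Cheng-Prusoff.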

[2] = biological target: T1, human 5-HT6 receptor; assay: Cell-based functional assay measuring cAMP production (HTRF); details: for Emax: agonist mode, relative to 10 μM 5-HT Emax control, read-out: Emax (agonism); for functional activity at the human 5HT6 receptor: cell based assay
Experimental: Compounds were further diluted to 4× assay concentrations with serum free media containing IBMX. […] Cells were lysed by addition of HTRFTM reagents (CisBio International) and after another 30 minute incubation, the plates were read on an AnalystGT (MDS) or SynergyHT (BioTek) microplate reader. […] Antagonist activity was expressed as the ratio of cAMP produced in a test well to the average cAMP produced in the EC80 challenge control wells. Agonist activity was determined after a full 30 minutes of incubation at room temperature, using 10 μM 5-HT as the Emax control. Cells were lysed by addition of HTRFTM reagents (CisBio International) and after another 30 minute incubation, the plates were read on an AnalystGT (MDS) or SynergyHT (BioTek) microplate reader. […] Agonist activity was expressed as the ratio of cAMP produced in a test well to the average cAMP produced in the Emax control wells. All cell-based experiments were performed in duplicate using ten concentrations of test compound with 5-HT (agonist mode) or a known antagonist (antagonist mode) included as additional controls in every run. […] For antagonists, the apparent dissociation constant (Kb) was calculated using a modified Cheng-Prusoff equation: Kb=IC50/([…][…])), where A=concentration of reference agonist in the assay and E[…]=EC50 value of the reference agonist.

Row | Structure (SMILES) | Ki [1] | melting point | Ki ([1]; hydrochloride) | Emax [2] | functional activity at the human 5HT6 receptor [2]
1 | COc1cc(S(=O)(=O)c2ccccc2)cc2c3c(oc12)CCNC3.Cl [Example 54, 6-Methoxy-8-(phenylsulfonyl)-1,2,3,4-tetrahydrobenzofuro[3,2-c]pyridine hydrochloride] | 0.12 nM | 197 to 202 °C | – | – | –
2 | Cl.O=S(=O)(c1cccc(C(F)(F)F)c1)c1ccc2oc3c(c2c1)C1CCC(C3)N1 (stereo not shown) [Example 55, 2-(3-Trifluoromethylphenyl)sulfonyl-6,7,8,9,10-pentahydro-7,10-epiminocyclohepta[b]benzofuran hydrochloride] | 53 nM | 296 to 298 °C | – | – | –
3 | Cl.O=S(=O)(c1cccc(Cl)c1)c1ccc2oc3c(c2c1)C1CCC(C3)N1 (stereo not shown) [Example 56, 2-(3-Chlorophenyl)sulfonyl-6,7,8,9,10-pentahydro-7,10-epiminocyclohepta[b]benzofuran hydrochloride] | 31 nM | 285 to 288 °C | – | – | –
4 | Cl.O=S(=O)(c1cccc(F)c1)c1ccc2oc3c(c2c1)C1CCC(C3)N1 (stereo not shown) [Example 57, 2-(3-Fluorophenyl)sulfonyl-6,7,8,9,10-pentahydro-7,10-epiminocyclohepta[b]benzofuran hydrochloride] | 133 nM | 200 to 210 °C | – | – | –
5 | Cc1cn(S(=O)(=O)c2ccc3oc4c(c3c2)C2CCC(C4)N2)c2ccccc12.Cl (stereo not shown) [Example 58, 2-(3-Methyl-1H-indol-1-yl)sulfonyl-6,7,8,9,10-pentahydro-7,10-epiminocyclohepta[b]benzofuran hydrochloride] | 16 nM | 195 to 199 °C | – | – | –
6 | Cl.O=S(=O)(c1ccc2oc3c(c2c1)C1CCC(C3)N1)n1ccc2ccc(F)cc21 (stereo not shown) [Example 59, 2-(6-Fluoro-1H-indol-1-yl)sulfonyl-6,7,8,9,10-pentahydro-7,10-epiminocyclohepta[b]benzofuran hydrochloride] | 17 nM | 184 to 187 °C | – | – | –
7 | Cl.O=S(=O)(c1ccccc1)c1ccc2c3c(oc2c1)CCNC3 [Example 60, 7-(Phenylsulfonyl)-1,2,3,4-tetrahydrobenzofuro[3,2-c]pyridine hydrochloride] | 9.8 nM | 235 to 238 °C | – | – | –
8 | CN1CCc2oc3cc(S(=O)(=O)c4ccccc4)ccc3c2C1.Cl [Example 61, 2-Methyl-7-(phenylsulfonyl)-1,2,3,4-tetrahydrobenzofuro[3,2-c]pyridine hydrochloride] | 18 nM | 242 to 245 °C | – | – | –
9 | Cl.O=S(=O)(c1cccc(Cl)c1)c1ccc2c3c(oc2c1)CCNC3 [Example 62, 7-(3-Chlorophenylsulfonyl)-1,2,3,4-tetrahydrobenzofuro[3,2-c]pyridine hydrochloride] | 1.7 nM | 288 to 292 °C | – | – | –
10 | Cl.O=S(=O)(c1cccc(C(F)(F)F)c1)c1ccc2c3c(oc2c1)CCNC3 [Example 63, 7-(3-Trifluoromethylphenylsulfonyl)-1,2,3,4-tetrahydrobenzofuro[3,2-c]pyridine hydrochloride] | 2.1 nM | 290 to 294 °C | – | – | –
11 | Cl.O=S(=O)(c1cccc(C(F)(F)F)c1)c1ccc2c3c(oc2c1)CC1CCC3N1 (stereo not shown) [Example 64, 3-(3-Trifluoromethylphenyl)sulfonyl-6,7,8,9,10-pentahydro-7,10-epiminocyclohepta[b]benzofuran hydrochloride] | 116 nM | 178 to 183 °C | – | – | –
12 | Cl.O=S(=O)(c1cccc(Cl)c1)c1ccc2c3c(oc2c1)CC1CCC3N1 (stereo not shown) [Example 65, 3-(3-Chlorophenyl)sulfonyl-6,7,8,9,10-pentahydro-7,10-epiminocyclohepta[b]benzofuran hydrochloride] | 154 nM | 193 to 197 °C | – | – | –
13 | Cl.O=S(=O)(c1ccc2c3c(oc2c1)CC1CCC3N1)n1ccc2ccccc21 (stereo not shown) [Example 67, 3-(1H-indol-1-yl)sulfonyl-6,7,8,9,10-pentahydro-7,10-epiminocyclohepta[b]benzofuran hydrochloride] | 34 nM | 192 to 196 °C | – | – | –
14 | Cl.O=S(=O)(c1ccccc1)c1ccc2c3c(oc2c1)CCCNC3 [Example 68, 8-(Phenylsulfonyl)-2,3,4,5-tetrahydro-1H-benzofuro[3,2-c]azepine hydrochloride] | 132 nM | 221 to 225 °C | – | – | –
15 | Cl.O=S(=O)(c1ccccc1)c1ccc2oc3c(c2c1)CNCCC3 [Example 69, 9-(Phenylsulfonyl)-2,3,4,5-tetrahydro-1H-benzofuro[3,2-c]azepine hydrochloride] | 571 nM | 211 to 216 °C | – | – | –
16 | Cl.O=S(=O)(c1ccccc1)c1cc(Cn2cccn2)c2oc3c(c2c1)CNCC3 [Example 75, 6-((1H-pyrazol-1-yl)methyl)-8-(phenylsulfonyl)-1,2,3,4-tetrahydrobenzofuro[3,2-c]pyridine hydrochloride] | 124 nM | 145 to 148 °C | – | – | –
17 | Cl.O=S(=O)(c1ccccc1)c1cc(CCO)c2oc3c(c2c1)CNCC3 [Example 79, 2-(8-(phenylsulfonyl)-1,2,3,4-tetrahydrobenzofuro[3,2-c]pyridin-6-yl)ethanol hydrochloride] | 4.3 nM | 239 to 240 °C | – | – | –
18 | CC(O)Cc1cc(S(=O)(=O)c2ccccc2)cc2c3c(oc12)CCNC3.Cl (stereo not shown) [Example 80, 1-(8-(phenylsulfonyl)-1,2,3,4-tetrahydrobenzofuro[3,2-c]pyridin-6-yl)propan-2-ol hydrochloride] | 19 nM | 283 to 284 °C | – | – | –
19 | CC1(C)NCCc2oc3c(Cl)cc(S(=O)(=O)c4ccccc4)cc3c21.Cl [Example 84, 6-chloro-1,1-dimethyl-8-(phenylsulfonyl)-1,2,3,4-tetrahydrobenzofuro[3,2-c]pyridine hydrochloride] | 27 nM | 282 to 287 °C (dec.) | – | – | –
20 | Cl.O=S(=O)(c1ccccc1)c1cc(Cl)c2oc3c(c2c1)C(CO)NCC3 (stereo not shown) [Example 85, (6-chloro-8-(phenylsulfonyl)-1,2,3,4-tetrahydrobenzofuro[3,2-c]pyridin-1-yl)methanol hydrochloride] | 1.6 nM | 185 to 187 °C | – | – | –
21 | CC1CNCc2c1oc1c(Cl)cc(S(=O)(=O)c3ccccc3)cc21.Cl (stereo not shown) [Example 89, 6-chloro-4-methyl-8-(phenylsulfonyl)-1,2,3,4-tetrahydrobenzofuro[3,2-c]pyridine hydrochloride] | 110 nM | 291 to 292 °C (dec.) | – | – | –
22 | Cl.Clc1cc(Sc2ccccc2)cc2c3c(oc12)CCNC3 [Example 91, 6-chloro-8-(phenylthio)-1,2,3,4-tetrahydrobenzofuro[3,2-c]pyridine hydrochloride] | 12 nM | 241 to 248 °C (dec.) | – | – | –
23 | Cl.[O-][S+](c1ccccc1)c1cc(Cl)c2oc3c(c2c1)CNCC3 (stereo not shown) [Example 93, 6-chloro-8-(phenylsulfinyl)-1,2,3,4-tetrahydrobenzofuro[3,2-c]pyridine hydrochloride] | – | 264 to 272 °C (dec.) | 10 nM | – | –
24 | Cl.OC(c1ccccc1)c1cc(Cl)c2oc3c(c2c1)CNCC3 (stereo not shown) [Example 94, (6-chloro-1,2,3,4-tetrahydrobenzofuro[3,2-c]pyridin-8-yl)(phenyl)methanol hydrochloride] | 143 nM | 260 °C (dec.) | – | – | –
25 | CC(c1ccccc1)c1cc(Cl)c2oc3c(c2c1)CNCC3.Cl (stereo not shown) [Example 95, 6-chloro-8-(1-phenylethyl)-1,2,3,4-tetrahydrobenzofuro[3,2-c]pyridine hydrochloride] | 7.5 nM | 245 to 255 °C (dec.) | – | – | –
26 | COc1cc(Cc2ccccc2)cc2c3c(oc12)CCNC3.Cl [Example 96, 8-benzyl-6-methoxy-1,2,3,4-tetrahydrobenzofuro[3,2-c]pyridine hydrochloride] | 4.9 nM | 263 to 265 °C | – | – | –
27 | Cl.O=S(=O)(c1ccc(C(F)(F)F)cc1)c1cc(Cl)c2oc3c(c2c1)CNCC3 [Example 111] | 3.3 nM | – | – | 27% | weak partial agonists
28 | Cl.O=S(=O)(c1ccc(OC(F)(F)F)cc1)c1cc(Cl)c2oc3c(c2c1)CNCC3 [Example 112] | 4.9 nM | – | – | 19% | weak partial agonists
